Results on 2 compounds are retold here after patent publication US4347242A, “Hypocalcaemic peptides and process for their manufacture” (Ciba-Geigy Corporation, priority 1978, dated 1982).

For one assay, the system named is rat. Briefly: rat hypocalcaemic activity test described by Kumar et al, J. Endocrinology 33, page 470 [1965] (MRC units). In kind it is in vivo. As to conditions: per mg of peptide or product.
Another assay has as its system rats. Briefly: lowering of plasma calcium and plasma phosphate level in tests on rats weighing 50 to 150 g. The assay is classed as in vivo, rat.
Assay [1] concerns patients with increased bone turn over. As to the kind of experiment: lowering of blood calcium level in patients with increased bone turn over. The assay is classed as in vivo, human. Conditions: intravenous, intramuscular or subcutaneous injection of 0.01 to 5 mg, e.g. in 0.1 molar acetate buffer pH 4.6.

Several values for one entry are separate records, joined by “and”; a condition that tells them apart may be missing. Equal entries are not always repeated.

As for `CC[C@H](C)[C@H](NC(=O)[C@H](C)NC(=O)[C@@H](NC(=O)[C@H](CCC(N)=O)NC(=O)[C@@H]1CCCN1C(=O)[C@H](Cc1ccccc1)NC(=O)[C@@H](NC(=O)[C@H](Cc1c[nH]cn1)NC(=O)[C@H](Cc1ccccc1)NC(=O)[C@H](CCCCN)NC(=O)[C@H](CC(N)=O)NC(=O)[C@H](Cc1ccccc1)NC(=O)[C@H](CC(=O)O)NC(=O)[C@H](CCC(N)=O)NC(=O)[C@@H](NC(=O)[C@H](Cc1ccc(O)cc1)NC(=O)[C@@H](NC(=O)CNC(=O)[C@H](CC(C)C)NC(=O)[C@H](CCSC)NC(=O)[C@@H]1CSSC[C@H](N)C(=O)NCC(=O)N[C@@H](CC(N)=O)C(=O)N[C@@H](CC(C)C)C(=O)N[C@@H](CO)C(=O)N[C@@H]([C@@H](C)O)C(=O)N1)[C@@H](C)O)[C@@H](C)O)[C@@H](C)O)[C@@H](C)O)C(=O)NCC(=O)N[C@H](C(=O)NCC(=O)N[C@@H](C)C(=O)N1CCC[C@H]1C(N)=O)C(C)C` [HT-C2], in the assay on rat, the “activity in the rat” value is 100 to 200 MRC units per mg and 100-200 MRC units per mg.
Turning to Human calcitonin, in the assay on rats, the plasma calcium level result was “lowers” and the plasma phosphate level result is recorded as “lowers”. Also, in assay [1], the “calcium level of the blood” value is given as “lowers the calcium level of the blood”.
